Reference: patent US4670431A, “Beta-lactam antibacterial agents” (Beecham Group p.l.c., priority 1983, dated 1987)

test system: P. mirabilis 889; assay: MIC against P. mirabilis 889; format: cell-based, Proteus mirabilis; conditions: Proteus mirabilis, 889
Text: The antibiotic compounds of the present invention are active against a wide range of gram negative and gram positive organisms including E. coli such as, for example ESS, JT4, JT425 and NCTC 10418; Pseudomonas Spp. such Ps.aeruginosa for example 10662 and Dalgleish; Serratia marcescens US32; Klebsiella aerogenes A; Enterobacter cloacae N1; P.mirabilis such as, for example C977 and 889; P.morganii, P.rettgeri; B.subtilis; Staph aureus such as, for example Oxford and Russell; N.catarrhalis 1502; Strep faecalis I; β-Haemolytic Strep CN10. The MIC data included in the following examples is representative of the activity of the compounds of the present invention.

| SMILES | MIC [µg/mL] |
| --- | --- |
| CCN1CCN(C(=O)N[C@@H](C(=O)N[C@]2(NC=O)C(=O)N3C(C(=O)O)=C(CSc4nnnn4C)C[S@+]([O-])[C@@H]32)c2ccccc2)C(=O)C1=O [Example 8(e), Sodium 7β-[D-2-[(4-Ethyl-2,3-dioxopiperazin-1-yl)carbonylamino]-2-phenylacetamido]-7α-formamido-3-[(1-methyl-1H-tetrazol-5-yl)thiomethyl]ceph-3-em-4-carboxylate-1β-oxide] | 0.5 |
| CCN1CCN(C(=O)N[C@@H](C(=O)N[C@]2(NC=O)C(=O)N3C(C(=O)O)=C(CSc4nnnn4C)C[S@+]([O-])[C@@H]32)c2ccc(O)c(O)c2)C(=O)C1=O [Example 16(d), Sodium 7β-[D-2-(3,4-dihydroxyphenyl)-2-[(4-ethyl-2,3-dioxopiperazin-1-yl)carbonylamino]acetamido]-7α-formamido-3-[(1-methyl-1H-tetrazol-5-yl)thiomethyl]-ceph-3-em-4-carboxylate-1β-oxide] | 1 |
| CC(=O)OCC1=C(C(=O)O)N2C(=O)[C@@](NC=O)(NC(=O)Cc3cccs3)[C@H]2[S@@+]([O-])C1 [Example 27(b), Sodium 7α-Formamido-7β-thien-2-ylacetamidocephalosporanate-1β-oxide] | 8 |
| CC(=O)OCC1=C(C(=O)O)N2C(=O)[C@@](NC=O)(NC(=O)Cc3cccs3)[C@H]2[S@+]([O-])C1 [Example 27(c), Sodium 7α-Formamido-7β-thien-2-ylacetamidocephalosporanate-1α-oxide] | 2 |

More lines, now with the values ahead:

| MIC [µg/mL] | SMILES |
| --- | --- |
| 0.25 | CCN1CCN(C(=O)N[C@@H](C(=O)N[C@]2(NC=O)C(=O)N3C(C(=O)O)=C(CSc4nnnn4C)C[S@@+]([O-])[C@@H]32)c2ccccc2)C(=O)C1=O [Example 8(d), Sodium 7β-[D-2-[(4-Ethyl-2,3-dioxopiperazin-1-yl)carbonylamino]-2-phenylacetamido]-7α-formamido-3-[(1-methyl-1H-tetrazol-5-yl)thiomethyl]ceph-3-em-4-carboxylate-1α-oxide] |
| 0.25 | CCN1CCN(C(=O)N[C@@H](C(=O)N[C@]2(NC=O)C(=O)N3C(C(=O)O)=C(CSc4nnnn4C)C[S@@+]([O-])[C@@H]32)c2ccc(O)c(O)c2)C(=O)C1=O [Example 16(e), Sodium 7β-[D-2-(3,4-dihydroxyphenyl)-2-[(4-ethyl-2,3-dioxopiperazin-1-yl)carbonylamino]acetamido]-7α-formamido-3-[(1-methyl-1H-tetrazol-5-yl)thiomethyl]-ceph-3-em-4-carboxylate-1α-oxide] |

same assay, conditions: Proteus mirabilis, 889, broth

| MIC [µg/mL] | SMILES |
| --- | --- |
| 16 | NC(=O)OCC1=C(C(=O)O)N2C(=O)[C@@](NC=O)(NC(=O)Cc3cccs3)[C@H]2SC1 [Example 26(b), Sodium 3-carbamoyloxymethyl-7α-formamido-7β-thien-2-yletamido-ceph-3-em-4-carboxylate] |
